The source made the active and inactive calls. The rule behind the calls is not given here.

Serine/threonine-protein kinase mTOR (Homo sapiens), sequence (P42345 2015-2114): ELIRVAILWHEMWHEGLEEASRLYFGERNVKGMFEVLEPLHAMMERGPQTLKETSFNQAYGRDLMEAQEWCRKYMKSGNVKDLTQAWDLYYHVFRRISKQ

This assay addresses Serine/threonine-protein kinase mTOR (Homo sapiens) (UniProt P42345). The assay can be described thus: binders of mTOR FRB domain, biophysical, NMR (AID 1648). As to conditions: NMR binding to FRB domain, chemical shift.
For orientation: Kd means the equilibrium constant for the complex coming apart. For `Cc1nc2ccccc2c(=O)n1CCCn1ccnc1`, the Kd is > 4 mM (inactive).
In the case of `O=C1CC(NCc2ccco2)C(=O)NN1` (centres undefined), the Kd is > 4 mM (inactive).
On to `O=C(CNC(=O)c1ccc(F)cc1)NC1=NCCS1`, for which the Kd is > 4 mM (inactive).
To `O=C1CCC(=O)N1c1cccnc1` belongs > 4 mM (inactive).
To `O=C1CSC(=Nc2ccccc2[N+](=O)[O-])N1` belongs > 4 mM (inactive); to `c1ccc(C[N+]23CCN(CC2)c2ccccc23)cc1`, > 4 mM (inactive); to `CCCCCC(=O)Cc1cc(O)cc(O)c1C(=O)Oc1cc(CC(=O)CCCCC)c(C(=O)O)c(OC)c1`, > 4 mM (inactive).
Consider `NC(=O)c1cccnc1Oc1ccccc1`, for which the Kd is > 4 mM (inactive).
For `Cc1oc(-c2ccccc2)cc1C(=O)O`, the Kd is > 4 mM (inactive).
Consider `CS(=O)(=O)c1ccc2nc(N)sc2c1`, for which the Kd was > 4 mM (inactive).
Under `Cc1ccccc1OCC(=O)O` stands > 4 mM (inactive).
For the compound `COc1cc(/C=C/C(=O)/C=C(O)/C=C/c2ccc(O)c(OC)c2)ccc1O`, the Kd was > 4 mM (inactive).
Under `Cc1nn2c(-c3ccco3)nnc2c2ccccc12` stands > 4 mM (inactive).
Turning to `CC(=O)OC[C@@]1(O)C[C@@]23CCC4c5ccoc5CC[C@]4(C)C2CC[C@@H]1C3` (some centres undefined), the Kd is > 4 mM (inactive).
Under `CS(=O)(=O)c1ccccc1C(=O)Nc1nccs1` stands > 4 mM (inactive); under `CC(=O)Nc1ccncc1NC(C)=O`, > 4 mM (inactive); under `CC(C)CCCC(C)[C@H]1CCC2C3CC=C4CC(=O)CC[C@]4(C)C3CC[C@@]21C` (some centres undefined), > 4 mM (inactive).
On to `NCc1ccc(N2CCOCC2)cc1`, for which the Kd was > 4 mM (inactive).
Regarding `Nc1cc(=O)[nH]c(SCC(=O)Nc2nccs2)n1`, the Kd was > 4 mM (inactive).
`CNc1nc(N)c(C(=O)C(C)(C)C)s1`: the Kd was > 4 mM (inactive).
For `OC1CNCc2cc3c(cc21)OCCO3` (centres undefined), the Kd was > 4 mM (inactive).
With `Nc1ccc2ncsc2c1`, the Kd is > 4 mM (inactive).
With `O=C1NC(=S)N/C1=C\c1ccccc1F`, the Kd is > 4 mM (inactive).
Turning to `O=C(Nc1nncs1)Oc1ccccc1`, the Kd is > 4 mM (inactive).
Turning to `CN1CCC(NC(=O)c2ccccc2[N+](=O)[O-])CC1`, the Kd was > 4 mM (inactive).
Regarding `c1ccc(-c2nsc(N3CCCNCC3)n2)cc1`, the Kd was > 4 mM (inactive).
Take `CC(=O)NC(=S)Nc1ccc(S(N)(=O)=O)cc1`: the Kd is > 4 mM (inactive).
As for `COc1cc2c(c(OC)c1OC)-c1ccc(O)c(=O)cc1[C@@H](NC(C)=O)CC2`, the Kd was > 4 mM (inactive).
With `CSc1n[nH]c(NCc2cccs2)n1`, the Kd is > 4 mM (inactive).
As to `O=C1c2cccc3cc(S(=O)(=O)O)cc(c23)C(=O)N1O`, the Kd was > 4 mM (inactive).
`CC(=O)N1CCN(C2CCSC2)CC1` (centres undefined): the Kd was > 4 mM (inactive).
To `COc1cc(-c2nnc(NC(C)=O)o2)cc(OC)c1OC` belongs > 4 mM (inactive); to `O=c1[nH]cnc2nn(-c3ccccc3)nc12`, > 4 mM (inactive); to `O=C(O)Cn1cnc2ccccc2c1=O`, > 4 mM (inactive).
As to `O=C(O)CC1C(=O)NCCN1Cc1ccccc1` (centres undefined), the Kd is > 4 mM (inactive).
With `Cc1cc(NC(=O)NCCCSc2nncn2C)no1`, the Kd is > 4 mM (inactive).
As to `C=CC1=C(C)/C(=C/c2[nH]c(Cc3[nH]c(/C=C4\NC(=O)C(C)=C4C=C)c(C)c3CCC(=O)O)c(CCC(=O)O)c2C)NC1=O`, the Kd is > 4 mM (inactive).
To `CN1CCN(C(=O)/C=C\C(=O)O)CC1` belongs > 4 mM (inactive); to `C[C@@H]1CC[C@@]2(OC1)OC1CC3C4CC=C5C[C@@H](O)CC[C@]5(C)C4CC[C@]3(C)C1[C@@H]2C` (some centres undefined), > 4 mM (inactive).
For the compound `Cn1c(=O)c2[nH]cnc2n(-c2ccccc2)c1=O`, the Kd was > 4 mM (inactive).
With `Cc1cc[n+](-c2nc([O-])sc2C=O)cc1`, the Kd was > 4 mM (inactive).
Turning to `CC(=O)Nc1ccccc1-c1ccccc1NC(C)=O`, the Kd was > 4 mM (inactive).
To `c1ccc(-n2ncc3c(NCc4ccco4)ncnc32)cc1` belongs > 4 mM (inactive).
For the compound `CCCn1c(C)cc(=O)[nH]c1=O`, the Kd is > 4 mM (inactive).
Regarding `CN1CCN(C2CCSC2)CC1` (centres undefined), the Kd was > 4 mM (inactive).
`O=C1CCC([N+](=O)[O-])C(c2ccccc2F)N1` (centres undefined): the Kd was > 4 mM (inactive).
Take `OC1CCN(C(=S)NC2CC2)CC1`: the Kd was > 4 mM (inactive).
Consider `Clc1ccccc1OCc1nc(-c2ccccn2)no1`, for which the Kd was > 4 mM (inactive).
Consider `c1ccc(-c2noc(-c3ccc4c(c3)OCO4)n2)nc1`, for which the Kd is > 4 mM (inactive).
Turning to `NC1Cc2ccccc2C1`, the Kd was > 4 mM (inactive).
`Cn1cnc2c(=S)[nH]c(=O)n(Cc3ccccc3)c21`: the Kd was > 4 mM (inactive).
For `CCc1cccc(C)c1NC(=O)c1cc(C)oc1C`, the Kd is > 4 mM (inactive).
As for `Nc1ccc(N2CCCCC2)cc1`, the Kd was > 4 mM (inactive).
Under `CC(=O)Oc1cc(-c2coc3cc(OC(C)=O)c(OC(C)=O)c(OC(C)=O)c3c2=O)cc(OC(C)=O)c1OC(C)=O` stands > 4 mM (inactive).
Take `CC(=O)OC(C)(C)[C@@H]1Cc2cc3ccc(=O)oc3cc2O1`: the Kd is > 4 mM (inactive).
Regarding `COc1ccc(C(=O)CC(=O)O)c2c1C=CC(C)(C)O2`, the Kd is > 4 mM (inactive).
As for `O=C(O)c1ccc(-n2ccnc2)cc1`, the Kd was > 4 mM (inactive).
Take `O=C1CC2OCC=C3CN4CC[C@]56c7ccccc7N1C5[C@H]2[C@H]3CC46` (some centres undefined): the Kd was > 4 mM (inactive).
`Cc1cc(C(=O)NCc2cccnc2)no1`: the Kd is > 4 mM (inactive).
Turning to `CC1=CC(=O)NC2C=CC=CC12` (centres undefined), the Kd is > 4 mM (inactive).
For `CN1CCC(NC(=S)NC2CC2)CC1`, the Kd is > 4 mM (inactive).
Under `CC(=O)NC(=S)Nc1cccc(C(=O)O)c1C` stands > 4 mM (inactive); under `COc1ccc(C(=O)NCC(=O)O)cc1`, > 4 mM (inactive).
To `CCNC(=S)NS(=O)(=O)c1ccccc1` belongs > 4 mM (inactive); to `COC(=O)N1CCN(c2ccc(C(C)=O)cc2)CC1`, > 4 mM (inactive); to `Cc1nnc(SCC(N)=O)c2ccccc12`, > 4 mM (inactive).
Consider `Cc1occc1C(=O)NC1CCN(C)CC1`, for which the Kd is > 4 mM (inactive).
With `CCNC(CC(=O)Nc1cccc([N+](=O)[O-])c1)C(=O)O` (centres undefined), the Kd is > 4 mM (inactive).
Under `NC1=NC(=O)C(CC(=O)Nc2ccccc2F)S1` (centres undefined) stands > 4 mM (inactive); under `NC(=O)CNC(=O)c1ccccc1`, > 4 mM (inactive).
Regarding `COc1ccc(C2(C)CC(=O)NC2=O)cc1` (centres undefined), the Kd is > 4 mM (inactive).
On to `CSc1nc(O)cc(=O)[nH]1`, for which the Kd was > 4 mM (inactive).
As to `O=C(CSc1ncccn1)Nc1nccs1`, the Kd was > 4 mM (inactive).
To `CN1CCN(c2cc(=O)n(C)c(=O)[nH]2)CC1` belongs > 4 mM (inactive).
With `COc1cc(/C=C/C(=O)O)cc(OC)c1OC`, the Kd is > 4 mM (inactive).
`Cc1cc(C)cc(C(=O)n2cnnc2N)c1`: the Kd was > 4 mM (inactive).
Consider `O/N=C1/CCCc2nonc21`, for which the Kd was > 4 mM (inactive).
With `CN=C(C)c1c(O)n(C)c(=O)n(C)c1=O`, the Kd was > 4 mM (inactive).
Regarding `NC(Cn1ccc(=O)c(O)c1)C(=O)O` (centres undefined), the Kd was > 4 mM (inactive).
On to `CNc1nc(C)nc(-n2nc(C)cc2C)n1`, for which the Kd is > 4 mM (inactive).
In the case of `CC(=O)O[C@H]1C[C@@]2(C)[C@@H](C[C@@H](O)C3[C@]2(C)CC[C@H]2[C@H](C)[C@H](O)CC[C@]32C)/C1=C(/CCC=C(C)C)C(=O)O` (some centres undefined), the Kd was > 4 mM (inactive).
In the case of `COc1ccc2[nH]cc(CCN(C)C)c2c1`, the Kd is > 4 mM (inactive).
With `O=C(O)c1cccnc1N1CCCC1`, the Kd was > 4 mM (inactive).
Under `C=Cc1c(C)c2cc3[nH]c(cc4nc(cc5nc(cc1[nH]2)C(C)=C5CCC(=O)O)C(CCC(=O)O)=C4C)c(C)c3C=C` stands > 4 mM (inactive); under `CCOC(=O)c1c(C)nc2c(C#N)cnn2c1C`, > 4 mM (inactive); under `Cc1nnsc1C(=O)Nc1ccccc1[N+](=O)[O-]`, > 4 mM (inactive).
To `OCc1ccc(N2CCOCC2)cc1` belongs > 4 mM (inactive).
For `CC(C)=CCc1c2c(c3occ(-c4ccc(O)c(O)c4)c(=O)c3c1O)C=CC(C)(C)O2`, the Kd is > 4 mM (inactive).
With `CC(=O)O[C@H]1C[C@@H](OC(C)=O)C(C)(C)C2C[C@@H](OC(C)=O)[C@]3(C)C(CC[C@@]4(C)[C@H](c5ccoc5)C(=O)[C@H]5O[C@]543)[C@]21C` (some centres undefined), the Kd is > 4 mM (inactive).
As for `CC1CN=C(Nc2ccccc2)S1` (centres undefined), the Kd was > 4 mM (inactive).
`NC(=S)NC1CCS(=O)(=O)C1` (centres undefined): the Kd was > 4 mM (inactive).
As for `Cc1oc(-c2ccccc2)cc1C(N)=O`, the Kd was > 4 mM (inactive).
With `Nc1nc(-c2ccccc2)ns1`, the Kd is > 4 mM (inactive).
With `CC1=C(/C=C/C(C)=C/C=C/C(C)=C/C=C/C=C(C)/C=C/C=C(C)/C=C/C2=C(C)CCCC2(C)C)C(C)(C)CCC1`, the Kd is > 4 mM (inactive).
On to `CC1CN(C(=O)c2ccncc2)CC(C)O1` (centres undefined), for which the Kd was > 4 mM (inactive).
Under `CCC(C)C(=O)OC1[C@@H]2CC3=C4CC(=O)O[C@@H](c5ccoc5)[C@]4(C)CCC3C(C)(C2=O)[C@@H](CC(=O)OC)C1(C)C` (some centres undefined) stands > 4 mM (inactive); under `Cc1cccc(NC(=O)c2ccc(=O)[nH]n2)c1`, > 4 mM (inactive).
`COc1cccc(NC(=O)c2cnn(C)c2Cl)c1`: the Kd is > 4 mM (inactive).
In the case of `COc1cc2c(cc1OC)C(C)NCC2` (centres undefined), the Kd is > 4 mM (inactive).

The values are drawn from PubChem BioAssay AID1648 (Sanford-Burnham Center for Chemical Genomics, 2009).
